Laboratory results reported in patent US12110295B2, “WD40 repeat domain protein 5 (WDR5) degradation/disruption compounds and methods of use” (Icahn School of Medicine at Mount Sinai, priority 2018, dated 2024).

biological target: WDR5 (Homo sapiens, UniProt P61964); assay: Screening of putative WDR5 degraders by Western blot in MV4;11 and/or MIAPACA2 cells; format: cell-based; design: After WDR5 degrader treatment, cells were collected and lysed; endogenous in cells; host or cells: MV4;11 and/or MIAPACA2; details: summary of screening, FIGS. 6-10
In short: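 MV4;11 (1×10^6/well) or MIAPACA2 (1×10^5/well) cells treated 18 h with compound at paired doses between 0.1 and 10 μM, DMSO as control. Total lysates immunoblotted for WDR5 with vinculin, tubulin or GAPDH loading controls; fluorescent secondary detection.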

| SMILES | effective degradation of WDR5 in MV4;11 and/or MIAPACA2 cells |
| --- | --- |
| Cc1ncsc1-c1ccc(CNC(=O)[C@@H]2C[C@@H](O)CN2C(=O)[C@@H](NC(=O)CCCCCC(=O)N2CCN(c3ncc(-c4cc(NC(=O)c5ccc(F)cc5C(F)(F)F)c(N5C[C@@H](C)N(C)[C@@H](C)C5)cc4F)cn3)CC2)C(C)(C)C)cc1 [XF078-111, (2S,4R)-1-((S)-2-(7-(4-(5-(2-fluoro-5-(4-fluoro-2-(trifluoromethyl)benzamido)-4-((3S,5R)-3,4,5-trimethylpiperazin-1-yl)phenyl)pyrimidin-2-yl)piperazin-1-yl)-7-oxoheptanamido)-3,3-dimethylbutanoyl)-4-hydroxy-N-(4-(4-methylthiazol-5-yl)benzyl)pyrrolidine-2-carboxamide] | able to effectively degrade WDR5 |
| Cc1ncsc1-c1ccc(CNC(=O)[C@@H]2C[C@@H](O)CN2C(=O)[C@@H](NC(=O)COCCOCCOCC(=O)N2CCN(Cc3cnc(N4CC=C(c5cc(NC(=O)c6c[nH]c(=O)cc6C(F)(F)F)c(N6C[C@@H](C)N(C)[C@@H](C)C6)cc5F)CC4)nc3)CC2)C(C)(C)C)cc1 [XF078-136, N-(4-fluoro-5-(1-(5-((4-((S)-13-((2S,4R)-4-hydroxy-2-((4-(4-methylthiazol-5-yl)benzyl)carbamoyl)pyrrolidine-1-carbonyl)-14,14-dimethyl-11-oxo-3,6,9-trioxa-12-azapentadecanoyl)piperazin-1-yl)methyl)pyrimidin-2-yl)-1,2,3,6-tetrahydropyridin-4-yl)-2-((3S,5R)-3,4,5-trimethylpiperazin-1-yl)phenyl)-6-oxo-4-(trifluoromethyl)-1,6-dihydropyridine-3-carboxamide] | able to effectively degrade WDR5 |
| C[C@@H]1CN(c2cc(F)c(-c3cnc(N4CCN(C(=O)CCOCCOCCOCCNc5cccc6c5C(=O)N(C5CCC(=O)NC5=O)C6=O)CC4)nc3)cc2NC(=O)c2ccc(F)cc2C(F)(F)F)C[C@H](C)N1C (stereo partly drawn) [XF078-125, N-(5-(2-(4-(3-(2-(2-(2-((2-(2,6-dioxopiperidin-3-yl)-1,3-dioxoisoindolin-4-yl)amino)ethoxy)ethoxy)ethoxy)propanoyl)piperazin-1-yl)pyrimidin-5-yl)-4-fluoro-2-((3S,5R)-3,4,5-trimethylpiperazin-1-yl)phenyl)-4-fluoro-2-(trifluoromethyl)benzamide] | able to effectively degrade WDR5 |
| C[C@@H]1CN(c2cc(F)c(C3=CCN(c4ncc(CN5CCN(C(=O)CCOCCOCCOCCOCCNc6cccc7c6C(=O)N(C6CCC(=O)NC6=O)C7=O)CC5)cn4)CC3)cc2NC(=O)c2c[nH]c(=O)cc2C(F)(F)F)C[C@H](C)N1C (stereo partly drawn) [XF078-159, N-(5-(1-(5-((4-(1-((2-(2,6-dioxopiperidin-3-yl)-1,3-dioxoisoindolin-4-yl)amino)-3,6,9,12-tetraoxapentadecan-15-oyl)piperazin-1-yl)methyl)pyrimidin-2-yl)-1,2,3,6-tetrahydropyridin-4-yl)-4-fluoro-2-((3S,5R)-3,4,5-trimethylpiperazin-1-yl)phenyl)-6-oxo-4-(trifluoromethyl)-1,6-dihydropyridine-3-carboxamide] | able to effectively degrade WDR5 |
| C[C@@H]1CN(c2cc(F)c(C3=CCN(c4ncc(CN5CCN(C(=O)CCOCCOCCOCCOCCOCCNc6cccc7c6C(=O)N(C6CCC(=O)NC6=O)C7=O)CC5)cn4)CC3)cc2NC(=O)c2c[nH]c(=O)cc2C(F)(F)F)C[C@H](C)N1C (stereo partly drawn) [XF078-160, N-(5-(1-(5-((4-(1-((2-(2,6-dioxopiperidin-3-yl)-1,3-dioxoisoindolin-4-yl)amino)-3,6,9,12,15-pentaoxaoctadecan-18-oyl)piperazin-1-yl)methyl)pyrimidin-2-yl)-1,2,3,6-tetrahydropyridin-4-yl)-4-fluoro-2-((3S,5R)-3,4,5-trimethylpiperazin-1-yl)phenyl)-6-oxo-4-(trifluoromethyl)-1,6-dihydropyridine-3-carboxamide] | able to effectively degrade WDR5 |
| Cc1ncsc1-c1ccc(CNC(=O)[C@@H]2C[C@@H](O)CN2C(=O)[C@@H](NC(=O)COCC(=O)N2CCN(Cc3cnc(N4CC=C(c5cc(NC(=O)c6c[nH]c(=O)cc6C(F)(F)F)c(N6C[C@@H](C)N(C)[C@@H](C)C6)cc5F)CC4)nc3)CC2)C(C)(C)C)cc1 [XF078-132, N-(4-fluoro-5-(1-(5-((4-(2-(2-(((S)-1-((2S,4R)-4-hydroxy-2-((4-(4-methylthiazol-5-yl)benzyl)carbamoyl)pyrrolidin-1-yl)-3,3-dimethyl-1-oxobutan-2-yl)amino)-2-oxoethoxy)acetyl)piperazin-1-yl)methyl)pyrimidin-2-yl)-1,2,3,6-tetrahydropyridin-4-yl)-2-((3S,5R)-3,4,5-trimethylpiperazin-1-yl)phenyl)-6-oxo-4-(trifluoromethyl)-1,6-dihydropyridine-3-carboxamide] | able to effectively degrade WDR5 |

Results, then the compound that gave them:

| effective degradation of WDR5 in MV4;11 and/or MIAPACA2 cells | SMILES |
| --- | --- |
| able to effectively degrade WDR5 | Cc1ncsc1-c1ccc(CNC(=O)[C@@H]2C[C@@H](O)CN2C(=O)[C@@H](NC(=O)CCOCCOCCC(=O)N2CCN(Cc3cnc(N4CC=C(c5cc(NC(=O)c6c[nH]c(=O)cc6C(F)(F)F)c(N6C[C@@H](C)N(C)[C@@H](C)C6)cc5F)CC4)nc3)CC2)C(C)(C)C)cc1 [XF078-135, N-(4-fluoro-5-(1-(5-((4-(3-(2-(3-(((S)-1-((2S,4R)-4-hydroxy-2-((4-(4-methylthiazol-5-yl)benzyl)carbamoyl)pyrrolidin-1-yl)-3,3-dimethyl-1-oxobutan-2-yl)amino)-3-oxopropoxy)ethoxy)propanoyl)piperazin-1-yl)methyl)pyrimidin-2-yl)-1,2,3,6-tetrahydropyridin-4-yl)-2-((3S,5R)-3,4,5-trimethylpiperazin-1-yl)phenyl)-6-oxo-4-(trifluoromethyl)-1,6-dihydropyridine-3-carboxamide] |
| able to effectively degrade WDR5 | Cc1ncsc1-c1ccc(CNC(=O)[C@@H]2C[C@@H](O)CN2C(=O)[C@@H](NC(=O)CCCCC(=O)NCCN2CCN(Cc3ccc(F)c(-c4ccc(N5C[C@@H](C)N(C)[C@@H](C)C5)c(NC(=O)c5c[nH]c(=O)cc5C(F)(F)F)c4)c3)CC2)C(C)(C)C)cc1 [XF078-12, N^1-(2-(4-((6-fluoro-3′-(6-oxo-4-(trifluoromethyl)-1,6-dihydropyridine-3-carboxamido)-4′-((3S,5R)-3,4,5-trimethylpiperazin-1-yl)-[1,1′-biphenyl]-3-yl)methyl)piperazin-1-yl)ethyl)-N^6-((S)-1-((2S,4R)-4-hydroxy-2-((4-(4-methylthiazol-5-yl)benzyl)carbamoyl)pyrrolidin-1-yl)-3,3-dimethyl-1-oxobutan-2-yl)adipamide] |
| able to effectively degrade WDR5 | Cc1ncsc1-c1ccc(CNC(=O)[C@@H]2C[C@@H](O)CN2C(=O)[C@@H](NC(=O)CCCCCCC(=O)N2CCN(Cc3cnc(N4CC=C(c5cc(NC(=O)c6c[nH]c(=O)cc6C(F)(F)F)c(N6C[C@@H](C)N(C)[C@@H](C)C6)cc5F)CC4)nc3)CC2)C(C)(C)C)cc1 [XF078-145, N-(4-fluoro-5-(1-(5-((4-(8-(((S)-1-((2S,4R)-4-hydroxy-2-((4-(4-methylthiazol-5-yl)benzyl)carbamoyl)pyrrolidin-1-yl)-3,3-dimethyl-1-oxobutan-2-yl)amino)-8-oxooctanoyl)piperazin-1-yl)methyl)pyrimidin-2-yl)-1,2,3,6-tetrahydropyridin-4-yl)-2-((3S,5R)-3,4,5-trimethylpiperazin-1-yl)phenyl)-6-oxo-4-(trifluoromethyl)-1,6-dihydropyridine-3-carboxamide] |
| able to effectively degrade WDR5 | Cc1ncsc1-c1ccc(CNC(=O)[C@@H]2C[C@@H](O)CN2C(=O)[C@@H](NC(=O)CCOCCOCCOCCOCCNC(=O)CCC(=O)N2CCN(c3ccc(-c4cc(NC(=O)c5c[nH]c(=O)cc5C(F)(F)F)c(N5C[C@@H](C)N(C)[C@@H](C)C5)cc4F)cn3)CC2)C(C)(C)C)cc1 [XF067-146, N-(4-fluoro-5-(6-(4-((S)-3-((2S,4R)-4-hydroxy-2-((4-(4-methylthiazol-5-yl)benzyl)carbamoyl)pyrrolidine-1-carbonyl)-2,2-dimethyl-5,21-dioxo-8,11,14,17-tetraoxa-4,20-diazatetracosan-24-oyl)piperazin-1-yl)pyridin-3-yl)-2-((3S,5R)-3,4,5-trimethylpiperazin-1-yl)phenyl)-6-oxo-4-(trifluoromethyl)-1,6-dihydropyridine-3-carboxamide] |
| able to effectively degrade WDR5 | Cc1ncsc1-c1ccc([C@H](C)NC(=O)[C@@H]2C[C@@H](O)CN2C(=O)[C@@H](NC(=O)CCCCCCCCCC(=O)N2CCN(c3ccc(-c4cc(NC(=O)c5c[nH]c(=O)cc5C(F)(F)F)c(N5C[C@@H](C)N(C)[C@@H](C)C5)cc4F)cn3)CC2)C(C)(C)C)cc1 [XF067-134, N-(4-fluoro-5-(6-(4-(11-(((S)-1-((2S,4R)-4-hydroxy-2-(((S)-1-(4-(4-methylthiazol-5-yl)phenyl)ethyl)carbamoyl)pyrrolidin-1-yl)-3,3-dimethyl-1-oxobutan-2-yl)amino)-11-oxoundecanoyl)piperazin-1-yl)pyridin-3-yl)-2-((3S,5R)-3,4,5-trimethylpiperazin-1-yl)phenyl)-6-oxo-4-(trifluoromethyl)-1,6-dihydropyridine-3-carboxamide] |
